Columns and labels:
Format in all cases: cell-based
[1] = system: carbapenem-resistant Enterobacteriaceae; test: modular kit for detection of CRE in urine sample; settings: CRE-containing urine sample pellets; 12 minutes at 38° C.
Method: The kit constructed as a twin-slide [as illustrated by FIG. 1] carries an “OCTET” strip impregnated [as in Example 1] with an array of eight beta-lactam antibiotics and 1 non-beta-lactam control [S].
To illustrate the life-saving potential of the proposed technology which eliminates delays in diagnosis of carbapenem-resistant members of the Enterobacteriaceae family (CRE), a CRE sample was analyzed using the invention's modular kit, containing ampicillin, ceftazidime, augmentin, cefotaxime, imipenem, cefuroxime, meropenem and ceftriaxone as beta-lactamase substrates and a non-beta-lactam antibiotic, served as a negative control.
Filter paper segments were glued to a slide, each segment impregnated with a single antibiotic of the abovementioned antibiotics and streaked with carbapenem-resistant Enterobacteriaceae-containing urine sample pellets, prepared as described in Examples 1 to 3. The slide was contacted with indicator strips attached to a slide.

Citrobacter freundii = test: modular antibiotic resistance detection kit on urine sample pellets; settings: profile r23, ESBL Pos; further: key: R = resistant; S = sensitive
Method: (§1) A modular antibiotic resistance detection kit offers more flexibility in testing different resistance profiles. In the modular detection kit exemplified here, the ART strip is replaced by filter paper segments glued to a slide, each segment impregnated with a single antibiotic.
(§2) Specifically, pathogen samples were tested using filter papers impregnated with the following beta-lactam antibiotics: ampicillin [Amp], augmentin (a combination of amoxicillin and clavulanic acid) [AMC], clavulanic acid (Reduced Resistance test) [RR], ceftazidime [Caz] and either imipenem or meropenem [CPM]. The impregnation details of the fragments were as in the previous Examples.
(§3) Filter paper (Whatman no. 3] strips impregnated with Assay Reagent solution were used as “indicator strips”. An indicator strip was attached to the plain top slide as shown in FIG. 2. Aliquots of the pellets of the urine samples tested were placed on each of the segments. The test was started by placing the activated indicator-strip-slide, on the modular antibiotic slide. The scan results obtained after 5-10 min at 38° C. are illustrated schematically in FIG. 2 where all segments, except for the negative (no antibiotic) control, show decolorization indicating resistance to each antibiotic in that array.
(§4) Samples resistant to ceftazidime but affected by clavulanic acid were assumed to contain extended spectrum beta lactamases (ESBLs). The ‘Confirmed’ detections column summarizes the number of CLP-validated results out of the total findings recorded.

K. pneumoniae [2] = test: as above
Method: as §1, §2, §3, §4

E. coli [3] = test: as above
Method: as §1, §2, §3, §4

Proteus mirabilis = test: as above
Method: as §1, §2, §3, §4

E. coli [4] = test: conventional lab procedures [CLP], resistance of bacterial isolates; settings: profile r9 of Table 2; further: key: R = resistant; S = sensitive
From the text: (§5) The same specimens were examined using conventional lab procedures [CLP] that determined the identity of the bacterial isolates and their resistance to the above beta-lactams.

K. oxytoca = test: ART strip test on urine sample pellets
Method: (§6) Filter paper (Whatman no. 3) strips impregnated with 50 mM potassium iodide and 10 mM iodine in 0.75% aqueous starch solution were divided into 6 test areas. Appropriate antibiotic substrates were prepared at a final concentration of 20 mg/mL. Each test area was impregnated with 30 μL of the appropriate solution. The strips were then dried in a lyophilizer and stored with a desiccant at 4° C.
(§7) One mL urine samples were spun 2 minutes at 3000 RPM in room temperature. Supernatants were removed and aliquots of the resulting pellets were streaked on standard slides.
(§8) The product of the enzymatic degradation of a beta-lactam antibiotic removes the iodine from the ART strip and causes local decolorization in that strip. Typically, a detection kit consists of two slides, as illustrated in FIG. 2. The bottom slide is streaked with the sample to be tested. The top slide (lid) carries the ART strip which is activated when each test area on the strip receives 25 μL of the activator solution consisting of 40 mg gelatin in 100 mL phosphate buffer pH 6.5. The test starts when the top slide carrying the freshly activated ART strip contacts the bottom slide carrying the sample. It may be carried out at ambient temperatures but will be accelerated by warming-up to 41° C. […] Result is confirmed if no decolorization took place in the absence of the bacteria (the background of that test area) or in the absence of the antibiotic (as in Test Area 2 in FIG. 1).
(§9) One mL urine sample pellets were collected as described in Example 1 and each streaked on a slide. The strip of the invention (termed ART for Antibiotics Resistance Test) was used to test for beta-lactamase and its ability to degrade Ceftazidime [Caz], Ceftriaxone [Cro], Cefuroxime [Cxm] and Ampicillin [Amp]. The strip, containing iodine and starch and divided to areas containing each of the abovementioned antibiotics, and attached to a plain slide, was activated as shown above, and placed on the streaked slide. After 5-15 minutes at 33° C.-38° C. the slide was scanned and recorded.

Acinetobacter sp. = test: ART strip test on urine sample pellets; settings: 1 sample (r29)
Method: as §6, §7, §8, §9

K. pneumoniae [5] = test: ART strip test on urine sample pellets
Method: as §6, §7, §8, §9

Staphylococcus sp. = test: ART strip test on urine sample pellets
Method: as §6, §7, §8, §9

Str. agalactiae = test: ART strip test on urine sample pellets; settings: 3 samples (r34)
Method: as §6, §7, §8, §9

E. faecalis = test: ART strip test on urine sample pellets; settings: 4 samples (r27)
Method: as §6, §7, §8, §9

Morg. morganii [6] = test: ART strip test on urine sample pellets
Method: as §6, §7, §8, §9

Prot. mirabilis = test: ART strip test on urine sample pellets
Method: as §6, §7, §8, §9

Citr. koseri = test: ART strip test on urine sample pellets; settings: 2 samples (r25)
Method: as §6, §7, §8, §9

E. coli [7] = test: ART strip (Antibiotics Resistance Test), iodometric detection of beta-lactam hydrolysis by un-cultured urine sample pellets
Method: as §6, §7, §8, §9

K. pneumoniae [8] = test: conventional lab procedures [CLP], resistance of bacterial isolates; settings: profile r19 of Table 2
From the text: as §5

Morg. morganii [9] = test: as above; settings: 1 sample (r23)
From the text: as §5

[10] = K. pneumoniae (5 samples), profile r17, ESBL Pos
[11] = K. pneumoniae, profile r18, ESBL Pos
[12] = K. pneumoniae, profile r20, ESBL Pos
[13] = K. pneumoniae, profile r21, ESBL Neg
[14] = E. coli (16 samples), profile r6, ESBL Neg, 5-10 min at 38° C.
[15] = Proteus mirabilis (3 samples), profile r25, ESBL Pos
[16] = Proteus mirabilis, profile r26, ESBL Pos
[17] = Proteus mirabilis, profile r27, ESBL Neg

Compound: augmentin [AMC]
- hydrolysis by the tested specimen (decolorization) [1]: hydrolysis
- resistance found with modular kit (Citrobacter freundii): R
- resistance found with modular kit (K. pneumoniae [2]; [10]): I
- resistance found with modular kit (K. pneumoniae [2]; [11]): R
- resistance found with modular kit (K. pneumoniae [2]; K. pneumoniae, profile r19): R
- resistance found with modular kit (K. pneumoniae [2]; [12]): R
- resistance found with modular kit (K. pneumoniae [2]; [13]): S
- resistance found with modular kit (E. coli [3]; [14]): S
- resistance found with modular kit (E. coli [3]; E. coli, profile r7): S
- resistance found with modular kit (E. coli [3]; E. coli, profile r8): S
- resistance found with modular kit (E. coli [3]; E. coli, profile r9, ESBL Neg): R
- resistance found with modular kit (E. coli [3]; E. coli, profile r10, ESBL Neg): I
- resistance found with modular kit (E. coli [3]; E. coli, profile r11, ESBL Neg): I
- resistance found with modular kit (E. coli [3]; E. coli, profile r12, ESBL Neg): I
- resistance found with modular kit (E. coli [3]; E. coli, profile r13): R
- resistance found with modular kit (E. coli [3]; E. coli, profile r14, ESBL Pos): R
- resistance found with modular kit (E. coli [3]; E. coli, profile r15, ESBL Pos): R
- resistance found with modular kit (Proteus mirabilis; [15]): I
- resistance found with modular kit (Proteus mirabilis; [16]): S
- resistance found with modular kit (Proteus mirabilis; [17]): R
- CLP result differing from kit (in brackets) (E. coli [4]): S

Compound: CC(C)(O/N=C(\C(=O)N[C@@H]1C(=O)N2C(C(=O)[O-])=C(C[n+]3ccccc3)CS[C@H]12)c1csc(N)n1)C(=O)O [Caz, Ceftazidime]
- resistance found with modular kit (Citrobacter freundii): R
- resistance found with modular kit (K. pneumoniae [2]; [10]): R
- resistance found with modular kit (K. pneumoniae [2]; [11]): R
- resistance found with modular kit (K. pneumoniae [2]; K. pneumoniae, profile r19): R
- resistance found with modular kit (K. pneumoniae [2]; [12]): R
- resistance found with modular kit (K. pneumoniae [2]; [13]): S
- resistance found with modular kit (E. coli [3]; [14]): S
- resistance found with modular kit (E. coli [3]; E. coli, profile r9, ESBL Neg): S
- resistance found with modular kit (E. coli [3]; E. coli, profile r10, ESBL Neg): S
- resistance found with modular kit (E. coli [3]; E. coli, profile r11, ESBL Neg): S
- resistance found with modular kit (E. coli [3]; E. coli, profile r12, ESBL Neg): S
- resistance found with modular kit (E. coli [3]; E. coli, profile r14, ESBL Pos): R
- resistance found with modular kit (E. coli [3]; E. coli, profile r15, ESBL Pos): R
- resistance found with modular kit (Proteus mirabilis; [15]): R
- resistance found with modular kit (Proteus mirabilis; [16]): R
- resistance found with modular kit (Proteus mirabilis; [17]): S
- resistance profile predicted by ART (K. oxytoca; 1 sample (r15)): S
- resistance profile predicted by ART (K. oxytoca; 3 samples (r14)): S
- resistance profile predicted by ART (Acinetobacter sp.): S
- resistance profile predicted by ART (K. pneumoniae [5]; 1 sample (r12)): S
- resistance profile predicted by ART (K. pneumoniae [5]; 8 samples (r11)): S
- resistance profile predicted by ART (K. pneumoniae [5]; 11 samples (r10), MDR): R
- resistance profile predicted by ART (Staphylococcus sp.; 1 sample (r31)): S
- resistance profile predicted by ART (Staphylococcus sp.; 1 sample (r32)): S
- resistance profile predicted by ART (Str. agalactiae): S[nd]
- resistance profile predicted by ART (E. faecalis): S[nd]
- resistance profile predicted by ART (Morg. morganii [6]; 1 sample (r22)): S
- resistance profile predicted by ART (Morg. morganii [6]; 1 sample (r23)): S
- resistance profile predicted by ART (Prot. mirabilis; 1 sample (r18)): S
- resistance profile predicted by ART (Prot. mirabilis; 1 sample (r19)): S
- resistance profile predicted by ART (Prot. mirabilis; 1 sample (r20)): R
- resistance profile predicted by ART (Prot. mirabilis; 6 samples (r17)): S
- resistance profile predicted by ART (Citr. koseri): S
- resistance profile predicted by ART (E. coli [7]; 3 samples (r8), MDR): R
- resistance profile predicted by ART (E. coli [7]; 12 samples (r7)): S
- resistance profile predicted by ART (E. coli [7]; 28 samples (r6), 5-15 minutes at 33° C.-38° C.): S
- CLP result differing from kit (in brackets) (K. pneumoniae [8]): S
- CLP result differing from ART (in brackets) (Morg. morganii [9]): R

— patent publication US20110245105A1, “Methods and Kits for Direct Detection and Susceptibility Profiling of Beta-Lactam Resistant Bacteria” (YISSUM RESEARCH DEVELOPMENT COMPANY OF THE HEBREW …, priority 2008, published 2011)
